Earlier results in US20260102357A1, “Sulfur-Containing Ionizable Lipids for the Delivery of Therapeutic Agents” (NanoVation Therapeutics Inc., priority 2022, published 2026).

Conditions: delivery of siRNA; fold less siRNA than KC2

Q: Which “siRNA required relative to KC2” value does the source give for `CCCCC/C=C\C/C=C\CCCCCCCCC(CCCCCCCC/C=C\C/C=C\CCCCC)OC(=O)CCCN(C)C` [MC3, DLin-MC3-DMA] here?
A: about 3 times less
